IC50 data for 11 compounds are collected here from US6133292A, “Diaryl-5-alkyl-5-methyl-2-(5H)-furanones as selective cyclooxygenase-2-inhibitors” (Merck Frosst Canada & Co., priority 1998, dated 2000).

The target in one assay is COX-1 (Homo sapiens, UniProt P23219). Briefly: Assay of COX-1 activity from U937 cell microsomes. The assay is classed as biochemical. More on the design: Assay of COX-1 Activity from U937 cell microsomes; endogenous in cells; host or cells: U937 cells, 100,000 x g microsomal fraction. The following applies: read-out: U937 Cox-1 (IC50, inhibition of PGE2 production). How it is done: Assay of COX-1 Activity from U937 cell microsomes
U 937 cells are pelleted by centrifugation at 500 x g for 5 min and washed once with phosphate-buffered saline and repelleted. Cells are resuspended in homogenization buffer consisting of 0.1 M Tris-HCl, pH 7.4, 10 mM EDTA, 2 μg/ml leupeptin, 2 μg/ml soybean trypsin inhibitor, 2 μg/ml aprotinin and 1 mM phenyl methyl sulfonyl fluoride. The cell suspension is sonicated 4 times for 10 sec and is centrifuged at 10,000 x g for 10 min at 4° C. The supernatant is centrifuged at 100,000 x g for 1 hr at 4° C. The 100,000 x g microsomal pellet is resuspended in 0.1 M Tris-HCl, pH 7.4, 10 mM EDTA to approximately 7 mg protein/mil and stored at -80° C.
Microsomal preparations are thawed immediately prior to use, subjected to a brief sonication, and then diluted to a protein concentration of 125 μg/ml in 0.1 M Tris-HCl buffer, pH 7.4 containing 10 mM EDTA, 0.5 mM phenol, 1 mM reduced glutathione and 1 μM hematin. Assays are performed in duplicate in a final volume of 250 μl. Initially, 5 μl of DMSO vehicle or drug in DMSO are added to 20 μl of 0.1 M Tris-HCl buffer, pH 7.4 containing 10 mM EDTA in wells of a 96-deepwell polypropylene titre plate. 200 μl of the microsomal preparation are then added and pre-incubated for 15 min at room temperature before addition of 25 μl of […] arachidonic acid in […] Tris-HCl and 10 mM EDTA, pH 7.4. Samples are incubated for 40 min at room temperature and the reaction is stopped by the addition of 25 μl of 1 N HCl. Samples are neutralized with 25 μl of 1 N NaOH prior to quantitation of PGE2 content by radioimmunoassay (Dupont-NEN or Amersham assay kits). Cyclooxygenase activity is defined as the difference between PGE2 levels in samples incubated in the presence of arachidonic acid and ethanol vehicle.
(§1) Compounds of the present invention are inhibitors of COX-2 and are thereby useful in the treatment of COX-2 mediated diseases as enumerated above. The activities of the compounds against cyclooxygenase may be seen in the representative results shown below. In the assay, inhibition is determined by measuring the amount of prostaglandin E2 (PGE2) synthesized in the presence of arachidonic acid, COX-1 or COX-2 and a putative inhibitor. The IC50 values represent the concentration of putative inhibitor required to lower PGE2 synthesis to 50% of that obtained as compared to the uninhibited control.

Another assay addresses T1, COX-2 (Homo sapiens, UniProt P35354).
T1 sequence (P35354 18-604): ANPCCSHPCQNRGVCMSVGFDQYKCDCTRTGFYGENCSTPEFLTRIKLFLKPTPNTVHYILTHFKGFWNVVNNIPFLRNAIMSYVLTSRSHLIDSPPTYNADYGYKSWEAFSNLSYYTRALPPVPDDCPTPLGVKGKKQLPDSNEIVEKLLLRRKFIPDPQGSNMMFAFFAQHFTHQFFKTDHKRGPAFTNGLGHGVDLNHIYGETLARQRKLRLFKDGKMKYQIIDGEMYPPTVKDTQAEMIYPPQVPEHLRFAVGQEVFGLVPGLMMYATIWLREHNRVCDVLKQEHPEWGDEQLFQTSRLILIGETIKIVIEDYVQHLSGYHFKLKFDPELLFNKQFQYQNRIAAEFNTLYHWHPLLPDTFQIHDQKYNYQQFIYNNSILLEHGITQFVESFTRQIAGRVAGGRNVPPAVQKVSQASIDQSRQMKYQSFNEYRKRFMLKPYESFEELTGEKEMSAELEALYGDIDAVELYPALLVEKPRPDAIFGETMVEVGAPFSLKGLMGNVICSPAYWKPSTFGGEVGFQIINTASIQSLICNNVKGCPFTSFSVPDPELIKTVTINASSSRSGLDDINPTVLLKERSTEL
Briefly: Human whole blood assay, COX-2 (LPS-induced PGE2 production). The assay is classed as cell-based. More on the design: incubation of human whole blood with LPS, which induces COX-2; from tissue; host or cells: fresh heparinized human whole blood from male and female volunteers, LPS-stimulated. The following applies: 24 hours at 37° C, read-out: HWB Cox-2 (IC50, inhibition of PGE2 production). How it is done:
Human whole blood provides a protein and cell-rich milieu appropriate for the study of biochemical efficacy of anti-inflammatory compounds such as selective COX-2 inhibitors. […] This is consistent with the observation that COX-2 inhibitors have no effect on PGE2 production in normal blood. These inhibitors are active only after incubation of human whole blood with LPS, which induces COX-2. This assay can be used to evaluate the inhibitory effect of selective COX-2 inhibitors on PGE2 production. As well, platelets in whole blood contain a large amount of the COX-1 enzyme. Immediately following blood clotting, platelets are activated through a thrombin-mediated mechanism. This reaction results in the production of thromboxane B2 (TXB2) via activation of COX-1. Thus, the effect of test compounds on TxB2 levels following blood clotting can be examined and used as an index for COX-1 activity. Therefore, the degree of selectivity by the test compound can be determined by measuring the levels of PGE2 after LPS induction (COX-2) and TxB2 following blood clotting (COX-1) in the same assay.
A. COX-2 (LPS-induced PGE9 production)
Fresh blood is collected in heparinized tubes by venipuncture from both male and female volunteers. The subjects have no apparent inflammatory conditions and have not taken any NSAIDs for at least 7 days prior to blood collection. Plasma is immediately obtained from a 2 mL blood aliquot to use as blank (basal levels of PGE2). The remaining blood is incubated with LPS (100 μg/ml final concentration, Sigma Chem, #L-2630 from E. coli; diluted in 0.1% BSA (Phosphate buffered saline) for 5 minutes at room temperature. Five hundred μL aliquots of blood are incubated with either 2 μL of vehicle (DMSO) or 2 μL of a test compound at final concentrations varying from 10 nM to 30 μM for 24 hours at 37° C. At the end of the incubation, the blood is centrifuged at 12,000 x g for 5 minutes to obtain plasma. A 100 μL aliquot of plasma is mixed with 400 μL of methanol for protein precipitation. The supernatant is obtained and is assayed for PGE2 using a radioimmunoassay kit (Amersham, RPA#530) after conversion of PGE2 to its methyl oximate derivative according to the manufacturer's procedure.
as §1

Some results are limits rather than exact numbers.

Sequence of COX-1 (P23219 24-599): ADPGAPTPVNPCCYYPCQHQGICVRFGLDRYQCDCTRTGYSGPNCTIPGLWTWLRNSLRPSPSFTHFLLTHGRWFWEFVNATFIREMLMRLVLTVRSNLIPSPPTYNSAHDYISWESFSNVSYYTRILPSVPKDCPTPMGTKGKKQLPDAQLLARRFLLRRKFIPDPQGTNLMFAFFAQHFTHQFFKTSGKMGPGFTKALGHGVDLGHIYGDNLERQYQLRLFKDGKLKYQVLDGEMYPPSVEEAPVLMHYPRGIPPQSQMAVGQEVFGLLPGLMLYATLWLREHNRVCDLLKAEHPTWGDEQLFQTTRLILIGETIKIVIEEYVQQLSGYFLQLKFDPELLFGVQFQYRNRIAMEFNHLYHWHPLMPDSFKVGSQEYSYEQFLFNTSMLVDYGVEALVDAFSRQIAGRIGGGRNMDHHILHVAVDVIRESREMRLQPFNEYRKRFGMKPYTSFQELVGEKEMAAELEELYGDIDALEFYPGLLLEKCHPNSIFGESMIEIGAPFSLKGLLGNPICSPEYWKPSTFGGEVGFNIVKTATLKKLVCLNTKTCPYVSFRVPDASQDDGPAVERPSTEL

`CCCC1(C)OC(=O)C(c2ccc(F)c(F)c2)=C1c1ccc(S(C)(=O)=O)cc1` (stereo not shown) [p, 3-(3,4-difluorophenyl)-5-methyl-4-[4-(methylsulfonyl)phenyl]-5-propyl-2,5-dihydro-2-furanone]: the 50% inhibitory concentration (IC50) was more than 10 µM at COX-1 and 2440 nM at COX-2.
The matching figures for `CC[C@@]1(C)OC(=O)C(c2ccc(F)c(F)c2)=C1c1ccc(S(C)(=O)=O)cc1` [h, (5R)-3-(3,4-difluorophenyl)-5-ethyl-5-methyl-4-[4-(methylsulfonyl)phenyl] -2,5-dihydro-2-furanone]: 24.8 µM and 1550 nM.
Taken in the same sequence, the figures for `CC1(C)OC(=O)C(c2ccc(F)cc2)=C1c1ccc(S(C)(=O)=O)cc1` [Compound T3-1, 3-(4-fluorophenyl)-5,5-dimethyl-4-[4-(methylsulfonyl)phenyl]-2,5-dihydro-2-furanone, reference compound] were 5.8 µM and less than 370 nM.
The matching figures for `CCC1(CC)OC(=O)C(c2ccccc2)=C1c1ccc(S(C)(=O)=O)cc1` [t, 5,5-diethyl-4-[4-(methylsulfonyl)phenyl]-3-phenyl-2,5-dihydro-2-furanone, reference compound]: more than 10 µM and 12200 nM.
In the case of `CCC1(CC)OC(=O)C(c2ccc(F)cc2)=C1c1ccc(S(C)(=O)=O)cc1` [u, 5,5-diethyl-3-(4-fluorophenyl)-4-[4-(methylsulfonyl)phenyl]-2,5-dihydro-2-furanone, reference compound], the IC50 at COX-1 was more than 10 µM; at COX-2, 13900 nM.
Taken in the same sequence, the figures for `CC[C@]1(C)OC(=O)C(c2ccc(F)cc2)=C1c1ccc(S(C)(=O)=O)cc1` [d, (5S)-5-ethyl-3-(4-fluorophenyl)-5-methyl-4-[4-(methylsulfonyl)phenyl]-2,5-dihydro-2-furanone] were 3.2 µM and 310 nM.
The matching figures for `CC[C@]1(C)OC(=O)C(c2ccc(F)c(F)c2)=C1c1ccc(S(C)(=O)=O)cc1` [i, (5S)-3-(3,4-difluorophenyl)-5-ethyl-5-methyl-4-[4-(methylsulfonyl)phenyl] -2,5-dihydro-2-furanone]: 13.4 µM and 530 nM.
Taken in the same sequence, the figures for `CC[C@@]1(C)OC(=O)C(c2ccc(F)cc2)=C1c1ccc(S(C)(=O)=O)cc1` [e, (5R)-5-ethyl-3-(4-fluorophenyl)-5-methyl-4-[4-(methylsulfonyl)phenyl]-2,5-dihydro-2-furanone] were 6.2 µM and 130 nM.
For `CCCC1(C)OC(=O)C(c2ccc(F)cc2)=C1c1ccc(S(C)(=O)=O)cc1` (stereo not shown) [n, 3-(4-fluorophenyl)-5-methyl-4-[4-(methylsulfonyl)phenyl]-5-propyl-2,5-dihydro-2-furanone], the IC50 is more than 10 µM at COX-1 and 2510 nM on COX-2.
Taken in the same sequence, the figures for `CCC1(C)OC(=O)C(c2ccc(F)cc2)=C1c1ccc(S(C)(=O)=O)cc1` (stereo not shown) [c, 5-ethyl-3-(4-fluorophenyl)-5-methyl-4-[4-(methylsulfonyl)phenyl]-2,5-dihydro-2-furanone] were 7.4 µM and 590 nM.
Taken in the same sequence, the figures for `CCCC1(C)OC(=O)C(c2cccc(F)c2)=C1c1ccc(S(C)(=O)=O)cc1` (stereo not shown) [o, 3-(3-fluorophenyl)-5-methyl-4-[4-(methylsulfonyl)phenyl]-5-propyl-2,5-dihydro-2-furanone] were more than 10 µM and 3550 nM.

As usually defined, the IC50 is the point on the concentration scale where inhibition reaches its midpoint.
